In patent publication US8629180B2, “Antiseptic agent composition” (Taiyo Corporation, priority 2009, dated 2014):

How the values were obtained:
[1] = test system: E. coli; experiment: Antiseptic and bactericidal effect found by the applicant (background); format: cell-based; details: background statement, the present applicant has found
[2] = test system: S. aureus; experiment: as above; format: cell-based; details: background statement, the present applicant has found

glycerin ricinoleic acid monoester was tested, and the “antiseptic and bactericidal effect on E. coli (in words)” value [1] was “almost no antiseptic and bactericidal effect” and the “antiseptic and bactericidal effects on S. aureus (in words)” value [2] was “exerts antiseptic and bactericidal effects”.
